Measurements published in patent publication US6172205A, “Synthetic process toward total synthesis of eleutherobin and its analogues and uses thereof” (The Trustees of Columbia in the City of New York, priority 1998, dated 2001).

Key:
P-glycoprotein = P-glycoprotein substrate behaviour inferred from resistance of SKVBL cells; type: cell-based, human
Method: Human non-small cell lung carcinoma cells, A549, were maintained in RPMI 1640 containing 10% fetal bovine serum and 1% penicillin-streptomycin (Gibco Laboratories, Grand Island N.Y.) at 37° C. in 7% CO2. The Taxol-resistant cell line A549-T12 was selected for resistance to Taxol and maintained in a final concentration of 12 nM drug (21). Human ovarian carcinoma cells SKOV3 and the MDR variant SKVBL (obtained from Dr. V. Ling) were maintained in α-mem plus ribonucleotides, deoxynucleotides, 15% fetal bovine serum and 1% penicillin-streptomycin (Gibco Laboratories) at 37° C. in 5% CO2. SKVBL cells were maintained in […] vinblastine (Sigma Chemical Co.).
Taxol-resistant and sensitive cell lines were seeded into 12-well plates at a density of 5×10^4 cells per well and allowed a period of 12 h for attachment prior to treatment. Cells were exposed to 10-fold serial dilutions of each compound (10^-10 to 10^-6 M) for 72 h. Cells were then trypsinized and counted (Coulter counter model ZF0031, Coulter Corp., Miami, Fla.). The IC50 was determined by plotting cell number against log of the drug concentration and this was used to determine the concentration of compound resulting in 50% growth inhibition compared to untreated cells. Each cell line was assayed in a minimum of 3 independent experiments with each compound and the results expressed as the mean IC50.
The cytotoxic efficacy of eleutherobin and its derivatives (FIG. 6) was evaluated in two drug sensitive human cancer cell lines and their Taxol-resistant counterparts. The results are summarized in Table I in order of decreasing potency. […] The Taxol-resistant cell line SKVBL overexpresses high levels of P-glycoprotein (22). […] The only difference between the two agents is the enantiomeric relationship in the carbohydrate (2'-acetylarabinose) sector (FIG. 6). […] This cell line expressed high levels of MDR1 resulting in Taxol-resistance equal or greater than 1666 -fold compared to the Taxol-sensitive SKOV3 cell line.

[1] = tested on: tubulin / microtubule protein; assay: Tubulin polymerization by turbidity at 350 nm in the absence of GTP; type: biochemical, calf; conditions: 10 μM, 37 °C, relative to 10 μM Taxol (100%)
Method: Eleutherobin and its derivatives were synthesized as described (18,19). Taxol was obtained from the Drug Development Branch, National Cancer Institute (Bethesda, Md.). All compounds were dissolved in dimethyl sulfoxide (Sigma Chemical Co., St. Louis, Mo.) at stock concentrations of 5 mM and stored at -20° C. All control samples contained an equal volume of DMSO. GTP was obtained from Sigma Chemical Co. And dissolved in sterile distilled water at a concentration of 10 mM and stored at -20° C. Microtubule protein was purified from calf brains by two cycles of temperature-dependent assembly and disassembly (20) and stored in liquid nitrogen prior to use. The anti-mouse β-tubulin monoclonal antibody T-4026 was obtained from Sigma Chemical Co.
The ability of each compound to polymerize tubulin was evaluated by recording the change in turbidity of microtubule protein at 350 nm for 80 min in a spectrophotometer (UVIKON, Research Instruments Int., SD, Calif.). One mg of purified microtubule protein was diluted in assembly buffer containing 0.1 M MES, 1 mM EGTA, 0.5 mM MgCl2 and 3 M glycerol, pH 6.6. All compounds were evaluated at a concentration of 10 μM at 37° C. […] Microtubule stability was assessed by the addition of 10 mM Ca^++. changes from t=0-10 min were used to calculate initial slopes from the linear portion of each curve. These values were used to calculate the activity of each compound (relative to the activity of Taxol which was assigned a value of 100%).
The polymerization activity of these compounds was also assessed by determining the slope of the linear portion of each curve at A350 nm (t=0-10 min), and expressing this relative to Taxol (which was assigned a value of 100% (FIG. 8). The order of activity of eleutherobin and derivatives using this method, corroborates the results obtained from cytotoxicity studies.

tumor cell lines = conditions: variety of tumor cell lines; cited from earlier work
[2] = tested on: cellular microtubules, NIH 3T3 cells; assay: Microtubule bundle formation by immunofluorescence; type: cell-based; conditions: 2 μM, 5.5 h
Method: FIG. 9 immunofluorescence images NIH3T3 cells labeled with β-tubulin antibody following exposure to different drugs. A)DMSO; B)2 μM Taxol; C)2 μM eleutherobin; D)2 μM neo-eleutherobin; E)2 μM SKBII.294; F)2 μM SKBIII.13.
Illustrates the effects of eleutherobin and its derivatives on the morphology of cellular microtubules following exposure of cells to 2 μM of each compound for 5.5 h at 37° C. […] The number of micotic asters correlated with the extent of microtubule bundling in interphase cells.
NIH 3T3 cells were grown to subconfluency on glass converslips in 35 mm plastic petri dishes. Cells were exposed to 2 μM of Taxol and each of the experimental compounds for 5.5 h at 37° C., rinsed twice in PBS and extracted with 0.5% Triton-X-100 in microtubule stabilizing buffer (PEM) (100 mM PIPES, 2 mM EGTA and 2 mM MgCl2, pH 6.8) for 4 min. Following a wash in PEM, the cells were fixed for 40 min at room temperature in 3% formaldehyde in PEM followed by incubation in 0.1 M glycine in PBS for 10 min and washing (four times) in PEM containing 5 μM EGTA. Following blocking in 20% normal goat serum (NGS) for 30 min at room temperature, cells were incubated for 1 h at 37° C. with a 1:100 dilution of β-tubulin mAb diluted in 10% NGS, washed twice in 1% BSA, once in PBS and three times in 1% BSA. Cells were then incubated in a 1:200 dilution of the secondary fluorophore antibody, IndocarbocyanineCY3 (Jackson Immunoresearch Laboratories Inc., Pa.) in 20% NGS for 20 min at room temperature. Finally cells were washed three times in 1% BSA and the dried slides mounted in 30% glycerol in PBS containing […]-phenylene diamine (1 mg/ml). Fixed slides were examined using a Zeiss Axioskop microscope.

SMILES: CO[C@]12C=C[C@](C)(O1)[C@@H](OC(=O)/C=C/c1cn(C)cn1)C[C@H]1C(C)=CC[C@H](C(C)C)[C@H]1/C=C\2CO[C@@H]1OC[C@@H](O)[C@@H](O)[C@@H]1OC(C)=O [Eleutherobin]
- P-glycoprotein substrate (in words) (P-glycoprotein): excellent substrates for P-glycoprotein
- polymerization activity relative to Taxol [1]: 94%
- potency in tumor cell lines (in words) (tumor cell lines): excellent potency in a variety of tumor cell lines
- microtubule bundle formation (in words) ([2]; 37 °C): extensive microtubule bundling
- multiple asters in mitotic cells ([2]; data not shown): also seen in eleutherobin and neo-eleutherobin-treated cells
